Measured values taken from US9579328B2, “Prostaglandin and vasoconstrictor pharmaceutical compositions and methods of use” (ALLERGAN, INC., priority 2012, dated 2017).
Where a name gives a salt, the structure may show the parent alone.

How the values were obtained:
[1] = test system: eyes of conscious Beagle dogs; conditions: cited from earlier work; for conjunctival hyperemia or adverse ocular effects at baseline (time 0): 1% (w/v) topical, dog eyes; for effect of L-NAME on elicited ocular surface hyperemia: L-NAME 1% treated eyes, 0-6 h
[2] = test system: rabbit isolated jugular veins; assay: Vasorelaxation in histamine-precontracted rabbit isolated jugular veins; type: cell-based
Excerpt: FIG. 3. Concentration-response curves for (FIG. 3A) bimatoprost and (FIG. 3B) latanoprost free acid in histamine-precontracted endothelium-intact and endothelium-denuded rabbit isolated jugular veins. Results are expressed as mean±S.E.M. of 5-6 animals. FIG. 3A adapted from Chen J et al., Invest Ophthalmol Vis Sci 2004; 45:ARVO E-Abstract 2609; FIG. 3B extends results reported in Chen J et al., Invest Ophthalmol Vis Sci 2004; 45:ARVO E-Abstract 2609; and Pharmacology Review of New Drug Application 21-275. FDA/Center for Drug Evaluation and Research. 2001;Part 1 and Part 2:1-107. Available online at http://www.fda.gov/cder/foi/nda/2001/21275_Lumigan.htm.
FIG. 4. Concentration-response curves for (FIG. 4A) bimatoprost and (FIG. 4B) latanoprost free acid in the presence or absence of indomethacin in endothelium-intact rabbit isolated jugular veins. Results are expressed as mean±S.E.M. of 7 animals and extend previous results reported in Pharmacology Review of New Drug Application 21-275. FDA/Center for Drug Evaluation and Research. 2001;Part 1 and Part 2:1-107. Available online at http://www.fda.gov/cder/foi/nda/2001/21275_Lumigan.htm.
FIG. 5. Concentration-response curves for (FIG. 5A) bimatoprost and (FIG. 5B) latanoprost free acid in the presence of 100 μM L-NAME or 100 (μM D-NAME control in endothelium-intact rabbit isolated jugular veins. Results are expressed as mean±S.E.M. of 6 animals. *P≦0.05, compared to responses in D-NAME pretreated tissues at the same concentration, paired t-test.
The pharmacological mechanism of ocular surface hyperemia elicited by bimatoprost and latanoprost was investigated using the rabbit jugular vein preparation as a quantitative in vitro model (Chen J. et al., Br J Pharmacol 1995; 116:3035-3041). In these studies, tissues were suspended in jacketed organ baths containing Krebs buffer with 1 μM indomethacin (endothelium-intact and -denuded) or in its absence (endothelium-intact) and precontracted with 3 μM histamine. Vasorelaxant and contractile activity were determined as a percentage (%) of the control tone elicited by histamine. Statistical comparisons for the vasorelaxant activity consisted of testing for significance of difference at each of the concentrations tested using the Student'-s t-test for unpaired samples (indomethacin vs no indomethacin) and paired samples (L-NAME vs D-NAME). Differences were considered statistically significant for P-values ≦0.05.
Indomethacin is a cyclooxygenase inhibitor that is routinely used in prostanoid receptor assays (Chen J et al., Current protocols in pharmacology. New York: John Wiley & Sons, Inc., 2001; 4.18.1-4.18.41). Studies of intact and viable isolated tissues, such as the rabbit jejunum (Ferreira S H, Herman A G, Vane J R., Br J Pharmacol 1976; 56:469-477) and human bronchial muscle (Haye-Legrand I, Cerrina J, Raffestin B et al., J Pharmacol Exp Ther 1986; 239:536-541), found the basal output of prostaglandins to be 8-23 pg/mg of tissue at baseline or over 30 min collection periods. In the presence of 1.7 and 2.79 μM indomethacin, the amounts of prostaglandins generated in isolated tissues become negligible (Botting J H, Salzmann R., Br J Pharmacol 1974; 50:119-124; Haye-Legrand I, Cerrina J, Raffestin B et al., J Pharmacol Exp Ther 1986; 239:536-541). The 1 μM concentration of indomethacin in the tissue bath, in our experience, is sufficient to prevent biosynthesis of prostanoids within isolated vascular tissue preparations (Alster P, Wennmalm Å., Eur J Pharmacol 1983; 86:441-446; Chen J et al., Current protocols in pharmacology. New York: John Wiley & Sons, Inc., 2001; 4.18.1-4.18.41). At substantially higher concentrations, indomethacin has been reported to lose selectivity for prostanoid biosynthesis inhibition (Aboulafia J et al., Br J Pharmacol 1976; 58:223-228; Goodfriend T L, Simpson R U., Br J Pharmacol 1981; 72:247-255; Northover B J, Br J Pharmacol 1971; 41:540-551; Sawdy R et al., Br J Pharmacol 1998; 125:1212-1217). […]

[3] = test system: rabbit isolated jugular veins; conditions: rabbit jugular vein; cited from earlier work
[4] = test system: human cultured conjunctiva-derived epithelial cells; conditions: cited from earlier work; for direct stimulation of inflammatory pathways involving adhesion molecules or class II antigens: in vitro; for toxicity observed: primarily related to the concentration of benzalkonium chloride
rabbit eye conjunctiva = conditions: topical dose of 10 μg (0.03%, 30 μl); cited from earlier work
[5] = test system: patients with glaucoma or ocular hypertension; conditions: 1 year; bimatoprost 0.03% once or twice daily, timolol maleate 0.5% twice daily; subset of 310 patients; cited from earlier work
[6] = bimatoprost 0.1%, latanoprost 0.005%, PGE2 0.01%

Question: With `COC(=O)[C@H](N)CCCN=C(N)N[N+](=O)[O-]` [D-NAME] as the molecule, how does the “conjunctival hyperemia or adverse ocular effects at baseline (time 0)” value [1] read?
Answer: did not produce conjunctival hyperemia or any adverse ocular effects

Question: Which “conjunctival hyperemia or adverse ocular effects at baseline (time 0)” value [1] does the source give for `COC(=O)[C@@H](N)CCCNC(=N)N[N+](=O)[O-]` [L-NAME, L-N^G-nitroarginine methyl ester] here?
Answer: did not produce conjunctival hyperemia or any adverse ocular effects

Question: Which “contraction of the endothelium-denuded preparation” value ([2]; concentration range of 10^−10 to 10^−6 M) does the source give for `O=C(O)CCC/C=C\C[C@@H]1[C@@H](CC[C@@H](O)CCc2ccccc2)[C@H](O)C[C@@H]1O` [Latanoprost free acid, latanoprost free acid] here?
Answer: did not contract

Question: What about the “response in endothelium-denuded veins” value ([2]; endothelium-denuded, 10^−5M, latanoprost free acid) of the same molecule?
Answer: only contractions

Question: And the “vasorelaxant response in presence of 100 μM L-NAME compared to 100 μM D-NAME control” value ([2]; endothelium-intact histamine precontracted tissues, P≦0.05 paired t-test)?
Answer: significantly inhibited

Question: And the “concentration of maximal vasorelaxation” value ([2]; endothelium-intact preparation)?
Answer: 10^−7 M

Question: And the “response at higher concentrations of 10^−6M and 10^−5M” value ([2]; endothelium-intact preparation)?
Answer: reversal of the relaxant effects

Question: And the “difference in effects with and without 1 μM indomethacin” value ([2]; endothelium-intact tissues, each concentration tested)?
Answer: no statistically significant differences

Question: With `CCCCC[C@H](O)/C=C/[C@H]1[C@H](O)CC(=O)[C@@H]1C/C=C\CCCC(=O)O` [PGE2, prostaglandin E2] as the molecule, how does the “effect of L-NAME on elicited ocular surface hyperemia” value [1, 6] read?
Answer: had no effect

Question: And the “ocular surface hyperemia severity” value ([1]; PGE2 0.01%, both D-NAME- and L-NAME-treated eyes, scale 0=none to 3=severe)?
Answer: mild to moderate

Question: Which “inhibition of response by L-NAME at 100 μM, compared to bimatoprost and latanoprost free acid” value [3] does the source give for `CCCCC[C@H](O)/C=C/[C@@H]1[C@@H](C/C=C\CCCC(=O)O)[C@@H](O)C[C@H]1O` [PGF2a, prostaglandin F2a] here?
Answer: less effective

Question: With `O=C(O)CCC/C=C\C[C@@H]1[C@H](CNNC(=O)Nc2ccccc2)[C@H]2CC[C@@H]1O2` [SQ 29548] as the molecule, how does the “effect of TP antagonist on reversal of the vasorelaxant response to latanoprost free acid” value ([2]; latanoprost free acid up to 10^−6 M) read?
Answer: did not block the reversal of the vasorelaxant response

Question: Which “direct stimulation of inflammatory pathways involving adhesion molecules or class II antigens” value [4] does the source give for `CC(C)OC(=O)CCC/C=C\C[C@@H]1[C@@H](CC[C@@H](O)CCc2ccccc2)[C@H](O)C[C@@H]1O` [latanoprost] here?
Answer: None of the drugs appeared to induce direct stimulation of inflammatory pathways

Question: What about the toxicity observed [4] of the same molecule?
Answer: mild

Question: And the “ocular surface hyperemic response (severity)” value ([1]; D-NAME treated control eyes, bimatoprost 0.1%, latanoprost 0.005%, scale 0=none, 0.5=trace, 1=mild, 2=moderate, 3=severe)?
Answer: trace to mild

Question: What about the “effect of L-NAME on elicited ocular surface hyperemia” value [1, 6] of the same molecule?
Answer: blocked

Question: And the “acute effects on blood flow in the conjunctiva” value (rabbit eye conjunctiva)?
Answer: no significant acute effects

Question: Which “mean laser-flare photometry readings and mean changes from baseline” value [5] does the source give for `CC(C)(C)NC[C@H](O)COc1nsnc1N1CCOCC1` [timolol maleate, (−)-1-tert-butylamino-3-[(4-morpholino-1,2,5-thiodiazol-3yl)oxy]-2-propanol maleate] here?
Answer: no significant differences among the treatment groups

Question: For `CC(C)OC(=O)CCC/C=C\C[C@@H]1[C@@H](/C=C/[C@@H](O)COc2cccc(C(F)(F)F)c2)[C@H](O)C[C@@H]1O` [travoprost], which “direct stimulation of inflammatory pathways involving adhesion molecules or class II antigens” value [4] is on record?
Answer: None of the drugs appeared to induce direct stimulation of inflammatory pathways

Question: And the toxicity observed [4]?
Answer: mild
